Reference: patent US7423181B2, “Aminoalkoxy-functional chalcones” (Lica Pharmaceuticals A/S, priority 2002, dated 2008)
In brackets after ≈: the same amount, converted by molar mass. Read-outs that look alike come from different tables or passages of the source.

Key:
[1] = test system: Streptococcus pneumoniae #998 (clinical isolate); experiment: MIC determination in broth microdilution assay; conditions: F: Streptococcus pneumoniae #998
Eschericia coli ESS = experiment: MIC determination in broth microdilution assay; conditions: H: Eschericia coli ESS
[2] = test system: cutaneous and visceral Leishmania infection; conditions: cited from earlier work
[3] = test system: dihydroorotate dehydrogenase (DHODH); experiment: DHODH assay; format: biochemical; conditions: at 10 μM
Experimental: 100 μl chalcone or 0.1 M Tris-HCl pH 8.0 is added to a well in a 96-wells microtiter plate. Then 50 μl enzyme dilution is added. The microtiter plate is placed in the Powerwavex340 and the enzymatic reactions starts when adding 100 μl assay mixture. The reaction are measured every 20 sec. for 10 min. The samples with chalcones are compared with the samples with 0.1 M Tris-HCl pH 8.0 and the percent inhibition is calculated.
Enzyme dilution: The solution of recombinant purified enzyme is dissolved in 0.1 M Tris-HCl pH 8 to give an initial velocity of 0.04-0.05 ΔA/min.
2,6-dichlorophenolindophenol (DCIP)-stock solution: 40 mg DCIP and 10 ml 99% Ethanol are mixed for 10 min at RT. Then 100 μl 1.0 M Tris-HCl pH 8 and miliQ H2O are added to a final volume of 100 ml. The A600 of the DCIP-stock solution are measured in a microtiter plate on the Powerwavex340 (Bio-Tek instruments,Inc.)
[…]: 25 mM dihydroorotate stock-solution is prepared by first dissolving in the same amount of mol NaOH and then miliQ H2O is added to the final volume.
Assay mix (10 ml solution): 600 μl of DHODH-stock solution and X ml (depending on the A600 value of stock-solution) DCIP to a final A600=2.5 are mixed. Then 0.1 M Tris-HCl pH 8.0 are added to a final volume of 10 ml.
Preparation of compound soluton: A 10 mM stock-solution of compound (e.g. a chalcone derivative) is made in dimethylsulfoxid (DMSO). The compound is then diluted in 0.1 M Tris-HCl pH 8 to the test concentrations. The final DMSO concentration in the sample is 10%

[4] = test system: Enterococcus faecalis ATCC29212; experiment: MIC determination in broth microdilution assay; conditions: D: Enterococcus faecalis ATCC29212
[5] = Determination of solubility; format: physicochemical; conditions: reference chalcones
Experimental: Determination of Solubility
Solubility of the compounds was determined by preparing a saturated solution of compound in 0.3 M phosphate buffer (pH 7.4±0.3) in a brown glass tube. The suspensions were rotated slowly for 24 hours. Aliquots were centrifuged for 10 minutes at 14.000 rpm and supernatants were diluted in 40% (v/v) acetonitrile in water prior to HPLC analysis. Concentrations of analytes were quantified against a standard curve and used as term of solubility. The HPLC-UV method used for the assessment of solubility is the same as used in the in vitro metabolism assay.

[6] = Determination of metabolic stability (liver microsomes); format: in vitro ADME; conditions: rat liver microsomes, 20 μM, 15 min
Experimental: Determination of Metabolic Stability
Incubations were performed with Wistar rat liver microsomes (0.25 mg/ml) in 2% sodium bicarbonate solution. NADP (0.13 mg/ml), glucose-6-phosphate (0.63 mg/ml) and glucose-6-phosphate dehydrogenase (0.38 units/ml) were used as NADPH generation system and UDPGA (0.48 mg/ml) was added to include the phase II reaction, glucuronic acid conjugation, in the assay. After 5 minutes of pre-incubation the reaction was started by addition of the test article to give a final concentration of 20 μM. Samples were incubated for 15 min at 37° C. and the reactions were terminated by addition of equal volumes of acetonitrile. Blank incubations were performed at the same concentration but without addition of microsomes. Both blank and microsome-containing samples were made in replicats of three. Prior to analysis samples were centrifuged for 10 min. at 3500 rpm,HPLC system:
Initial conditions were 40% mobile phase A (acetonitrile) and 60% mobile phase B (10 mM ammonium acetate pH 9.5). During the first 20 minutes, the mobile phase was changed via a linear gradient to 90% A and 10% B. This was followed by a 5 minutes linear gradient to initial conditions, which were maintained for 5 min. The flow rate was 0.20 m)/min and injection volume 10 μl.

[7] = test system: parasitic or bacterial infections; experiment: In vivo potency of chalcones
P.yoelii and P.berghei = conditions: cited from earlier work
[8] = test system: Enterococcus faecium #17501 (vancomycin-resistant clinical isolate); experiment: MIC determination in broth microdilution assay; conditions: E: Enterococcus faecium #17501 (vancomycin-resistant)
[9] = test system: Staphylococcus aureus ATCC29213; experiment: MIC determination in broth microdilution assay; conditions: A: Staphylococcus aureus ATCC29213
[10] = test system: Staphylococcus aureus ATCC33591(resistant to methicillin); experiment: MIC determination in broth microdilution assay; conditions: B: Staphylococcus aureus ATCC33591(resistant to methicillin)
Pharmacokinetic studies = format: in vivo, mice
Experimental: Samples of serum were taken at defined timepoints.
The supernatant was used for the analysis.
The flow rate was […], injection volume 10 μl.

[11] = test system: panel of 10 different non-fastidious bacteria; experiment: Screening against panel of non-fastidious bacteria
[12] = test system: Plasmodium falciparum K1(Cq-res); conditions: read-out: Plasmodium falciparum IC50
Plasmodium berghei K173 = conditions: multiple oral administrations, NMRI female mice, FIG. 7
[13] = test system: Plasmodium falciparum 3D7; experiment: Plasmodium falciparum assay; format: cell-based
[14] = mice
[15] = test system: Plasmodium falciparum DD2(Cq-res); conditions: read-out: Plasmodium falciparum IC50
[16] = test system: Plasmodium falciparum 7G8(Cq-res); conditions: read-out: Plasmodium falciparum IC50

SMILES: C=CC(C)(C)c1cc(/C=C/C(=O)c2ccc(O)cc2)c(OC)cc1O [LicA, Licochalcone A]
- MIC [1]: 75.0 µM (≈ 25.4 µg/mL)
- MIC (Eschericia coli ESS): 300.0 µM (≈ 102 µg/mL)
- efficacy in experimental animal models [2]: efficacy in experimental animal models of cutaneous and visceral Leishmania infection
- Inhibition of DHODH [3]: 25%
- MIC [4]: 37.5 µM (≈ 12.7 µg/mL)
- aqueous solubility [5]: approximately 0.01 mg/ml
- Metabolic turn-over in vitro [6]: 100%
- Metabolic turn-over in vitro ([6]; listed as Lica): 100%
- in vivo potency [7]: 50 mg/kg
- protection of mice from infection (P.yoelii and P.berghei): protects mice from infection with P.yoelii and P.berghei
- MIC [8]: 37.5 µM (≈ 12.7 µg/mL)
- MIC [9]: 37.5 µM (≈ 12.7 µg/mL)
- MIC [10]: 37.5 µM (≈ 12.7 µg/mL)
- bioavailability (Pharmacokinetic studies; in mice): < 6%
- t1/2 in vivo (Pharmacokinetic studies; in vivo): 10 min
- bactericidal activity against common pathogenic Gram-positive non-fastidious bacteria ([11]; Gram-positive bacteria): moderate bactericidal activity
- activity against Eschericia coli ([11]; prototype pathogenic Gram-negative bacterium): modest or no activity

SMILES: CN(C)CCOc1ccc(-c2ccccc2C(F)(F)F)cc1/C=C/C(=O)c1ccccc1CN(C)C [Compound C130, (E)-3-[4-(2-Dimethylamino-ethoxy)-2′-trifluoromethyl-biphenyl-3-yl]-1-(2-dimethylaminomethyl-phenyl)-propenone]
- IC50 [12]: 40 nM
- effect on development of the infection (Plasmodium berghei K173): inhibit the development of the infection
- IC50 ([13]; 3D7(Cq-sen) (Table 3), read-out: Plasmodium falciparum IC50): 30 nM
- IC50 ([13]; Plasmodium falciparum 3D7 (Table 2), read-out: IC50): 30 nM
- times more potent than LicA ([13]; dose-response curve at Plasmodium falciparum, FIG. 4): 213 times
- Metabolic turn-over [14]: 77%
- IC50 [15]: 60 nM
- Metabolic turn-over in vitro [6]: 6%
- IC50 [16]: 50 nM
